From patent US20050054103A1, “Expansion of renewable stem cell populations using modulators of PI 3-kinase” (priority 2003, published 2005)

Key:
[1] = test system: primary hepatocytes; experiment: Primary hepatocyte cultures with RAR antagonist (AFP/albumin immunostaining, Giemsa); type: cell-based, mice; conditions: for α-fetoprotein (AFP) expression vs control: three week old primary cultures, no cytokines
Procedure: Three intact livers were harvested from 3 week old VLVC female mice (Harlan Laboratories, Jerusalem, Israel), dissected and washed twice with DMEM (Beit Haemek, Israel), incubated with DMEM in the presence 0.05% collagenase for 30 minutes at 37° C., ground and passed through a 200 μm mesh sieve, yielding individual hepatocytes. Cells were washed twice and viability was ascertained with trypan blue. Cells were plated in collagen-coated, 35 mm tissue culture plates at a density of 4-×10^4 live cells/ml in F12 media (containing 15 mM Hepes, 0.1% glucose, 10 mM sodium bicarbonate, 100 units/ml penicillin-streptomycin, glutamine, 0.5 units/ml insulin, 7.5 m cg/ml hydrocortisone, and 10% fetal bovine serum). Medium was changed after 12 hours, the cells were washed twice with phosphate buffered saline (PBS) and new medium was added. Medium was changed twice a week.
Hepatocytes were also grown in the presence of Epidermal Growth Factor (EGF), Platelet-Derived Growth Factor β chain (PDGF-BB), Fibroblast growth Factors (FGF-4) and Hepatocyte Growth Factor (HGF), at 20-50 ng/ml each, for the entire culturing period according to the method of Schwartz et al. (Schwartz R E, Reyes M, Koodie L, Jiang Y, Blackstad M, Lund T, Lenvik T, Johnson S, Hu W S, Verfaillie C M. Multipotent adult progenitor cells from bone marrow differentiate into functional hepatocyte-like cells. J Clin Invest. 2002; 109 (10): 1291-302). Hepatocytes were also grown in serum free medium according to the method of Runge et al. (Runge D, Runge D M, Jager D, Lubecki K A, Beer Stolz D, Karathanasis S, Kietzmann T, Strom S C, Jungermann K, Fleig W E, Michalopoulos G K. Serum-free, long-term cultures of human hepatocytes: maintenance of cell morphology, transcription factors, and liver-specific functions. Biochem Biophys Res Commun. 2000; 269(1): 46-53).
In all of the above-mentioned hepatocytes culture conditions, cells are grown in the presence or absence of the retinoic acid antagonist AGN 194310 at concentrations ranging from 10^−5 M to 10^−9 M.
After a period of 3 weeks, cultures treated with 10^−5 M antagonist were detached with 0.25% trypsin, split and replated at a 1:2 ratio. The cells were either immunostained as described below, or visualized with Giemsa staining.
Murine hepatocyte cultures supplemented with EGF and HGF were evaluated as primary cultures, or following first and second passages. First passage cultures were grown for 2 weeks, split 1:2 and immunostained 8 days later for the presence of albumin, as described below. Second passage cultures were similarly grown for 2 weeks, split 1:2, and grown for an additional week, then split 1:4 and similarly immunostained 4 days later. […]

[2] = test system: CD34+ cell cultures; experiment: Colony forming unit (CFU, LTC-CFUc) ability of RAR antagonist treated CD34+ cultures; type: cell-based, human; conditions: for No. of CFU*103: RAR antagonist 10^−5 M for one week only
Procedure: Cells were cloned in semi-solid, methylcellulose-containing medium supplemented with 2 IU/ml erythropoietin (Eprex, Cilag AG Int., Switzerland), stem cell factor and IL-3, both at 20 ng/ml, and G-CSF and GM-CSF, both at 10 ng/ml (all from Perpo Tech). Cultures were incubated for 14 days at 37° C., 5% CO2 in a humidified atmosphere.
Briefly, the ability of the cultures to maintain self-renewal was measured by determination of the content of colony forming unit cells in the long and extended long-term cultures (LTC-CFUc), as described in the references hereinabove.
Long-term CD34^+ cell cultures were supplemented with a combination of 4 cytokines, Flt3, TPO, IL-6 and IL-3, with and without varying predetermined concentrations of the RAR antagonist AGN 194310. RAR antagonist treatment of the cultures was for a limited period of three weeks or was continuous during the entire culture period. The ability to form CFUs was determined for long-term (6 weeks) cultures treated with 2 doses of the RAR antagonist for a short pulse or continuously and was compared to control samples treated with cytokines alone.

[3] = test system: Normal human erythroid cells; experiment: Human erythroid two-phase liquid culture; type: cell-based; conditions: TEPA 10 μM in second phase, after 14 days
Procedure: Peripheral blood mononuclear cells, obtained from an adult normal donor, were cultured in the erythroid two-phase liquid culture system (23-25). The second phase of the culture was supplemented either without or with 10 μM of TEPA. Cultures were analyze for total cells and hemoglobin-containing [benzidine positive (B^+)] cells after 14 days.
Human erythroid cell cultures: Normal human erythroid cells were grown according to the two-phase liquid culture procedure, essentially as described in references 67-70. In the first phase, peripheral blood mononuclear cells were incubated in the presence of early growth factors for 5-7 days. In the second phase, these factors were replaced by the erythroid specific proliferation/differentiation factor, erythropoietin.
The cultures were supplemented with TEPA at the initiation of the second phase. The total cell number and the percentage of hemoglobin-containing cells were determined after 14 days.

[4] = test system: Cord blood-derived cells; experiment: Storage and separation of cord blood cells in the presence of TEPA, then long-term culture; type: cell-based; conditions: cells stored 24 hours at 4° C. and separated with 10 μM TEPA
Procedure: Cord blood-derived cells were collected and stored (unseparated) for 24 hours, at 4° C., either in the presence or absence of 10 μM TEPA. CD34^+ cells were then separated using either 10 μM TEPA-PBS buffer or TEPA free PBS buffer, respectively. Then, cells were grown in long-term cultures in the presence of 10 μM TEPA.

| Compound | oval cell population (giemsa) ([1]; 10^−5 M, primary cultures) | α-fetoprotein (AFP) expression vs control ([1]; 10^−5 M) | α-fetoprotein (AFP) expression vs control ([1]; 10^−5 M, listed as retinoic acid antagonist) | numbers of hepatocytes vs controls ([1]; second passage, EGF + HGF, 10^−5 M to 10^−7 M) | No. of CFU*103 ([2]; week 13) | No. of CFU*103 ([2]; week 20) | increase of CFU content ([2]; extended long-term cultures (week 6 to 10), pulse or continuous treatment) | increase in CFU content as compared to control ([2]; long-term (6 weeks) cultures, pulsed first 3 weeks or continuous antagonist) [fold] | hemoglobin-containing cells [3] | total number of cells [3] | duration of expansion of long-term cultures [4] [weeks] |
| --- | --- | --- | --- | --- | --- | --- | --- | --- | --- | --- | --- |
| CCc1ccc(C2=CC(C)(C)Sc3ccc(C#Cc4ccc(C(=O)O)cc4)cc32)cc1 [AGN 194310] | marked increase in oval cell population | marked increase in AFP expression | increase in the fraction of cells that stained positively for α-fetoprotein | Significantly greater numbers of hepatocytes | 66355 *103 | 0 *103 | 15×10^4 | 5 |  |  |  |
| NCCNCCNCCNCCN [TEPA, tetraethylenepentamine] |  |  |  |  |  |  |  |  | sharp decrease | decreased only slightly | 8 |
